Source: ChEMBL document CHEMBL3853300, “Synthesis of α-santonin derived acetyl santonous acid triazole derivatives and their bioevaluation for T and B-cell proliferation” (Eur J Med Chem, 2016)

What was measured:
B = assay: Immunosuppressive activity in Balb/c mouse B cells assessed as inhibition of LPS-induced cell proliferation after 48 hrs by MTT assay relative to control; format: functional, cell-based
Mus musculus [1] = organism: Mus musculus; assay: Cytotoxicity against Balb/c mouse B cells assessed as decrease in cell viability at 100 uM after 48 hrs by MTT assay; format: toxicity, cell-based
T-cell = assay: Immunosuppressive activity in Balb/c mouse T cells assessed as inhibition of ConA-induced cell proliferation after 48 hrs by MTT assay relative to control; format: functional, cell-based
[2] = Immunosuppressive activity in Balb/c mouse T cells assessed as inhibition of ConA-induced cell proliferation at 100 uM after 48 hrs by MTT assay relative to control; format: functional
Mus musculus [3] = organism: Mus musculus; assay: Cytotoxicity against Balb/c mouse T cells assessed as decrease in cell viability at 1 uM after 48 hrs by MTT assay; format: toxicity, cell-based
[4] = Immunosuppressive activity in Balb/c mouse T cells assessed as inhibition of ConA-induced cell proliferation at 10 uM after 48 hrs by MTT assay relative to control; format: functional
[5] = Immunosuppressive activity in Balb/c mouse T cells assessed as inhibition of ConA-induced cell proliferation at 1 uM after 48 hrs by MTT assay relative to control; format: functional
Mus musculus [6] = organism: Mus musculus; assay: Cytotoxicity against Balb/c mouse T cells assessed as decrease in cell viability at 100 uM after 48 hrs by MTT assay; format: toxicity, cell-based
[7] = Immunosuppressive activity in Balb/c mouse B cells assessed as inhibition of LPS-induced cell proliferation at 100 uM after 48 hrs by MTT assay relative to control; format: functional
Mus musculus [8] = organism: Mus musculus; assay: Cytotoxicity against Balb/c mouse B cells assessed as decrease in cell viability at 1 uM after 48 hrs by MTT assay; format: toxicity, cell-based
[9] = Immunosuppressive activity in Balb/c mouse B cells assessed as inhibition of LPS-induced cell proliferation at 10 uM after 48 hrs by MTT assay relative to control; format: functional
Mus musculus [10] = organism: Mus musculus; assay: Cytotoxicity against Balb/c mouse B cells assessed as decrease in cell viability at 10 uM after 48 hrs by MTT assay; format: toxicity, cell-based
[11] = Immunosuppressive activity in Balb/c mouse B cells assessed as inhibition of LPS-induced cell proliferation at 1 uM after 48 hrs by MTT assay relative to control; format: functional
Mus musculus [12] = organism: Mus musculus; assay: Cytotoxicity against Balb/c mouse T cells assessed as decrease in cell viability at 10 uM after 48 hrs by MTT assay; format: toxicity, cell-based

| Compound | inhibition (B) | Activity (Mus musculus [1]) | inhibition (T-cell) | inhibition at 100 µM [2] | Activity (Mus musculus [3]) | inhibition at 10 µM [4] | inhibition at 1 µM [5] | Activity (Mus musculus [6]) | inhibition at 100 µM [7] | Activity (Mus musculus [8]) | inhibition at 10 µM [9] | Activity (Mus musculus [10]) | inhibition at 1 µM [11] | Activity (Mus musculus [12]) |
| --- | --- | --- | --- | --- | --- | --- | --- | --- | --- | --- | --- | --- | --- | --- |
| CC(=O)Oc1cc(C)c2c(c1C)C[C@H]([C@@H](C)C(=O)OCc1cn(-c3ccccc3CO)nn1)CC2 | Dose-dependent effect | Toxic | Dose-dependent effect | 81.1% | Toxic | 32.6% | 17.4% | Toxic | 53.4% | Toxic | 64.1% | Toxic | 60.3% | Toxic |
| CC(=O)Nc1ccc(-n2cc(COC(=O)[C@H](C)[C@@H]3CCc4c(C)cc(OC(C)=O)c(C)c4C3)nn2)cc1 | Dose-dependent effect | Toxic | Dose-dependent effect | 33.8% | Toxic | 50% | 22.1% | Toxic | 39% | Toxic | 31.3% | Toxic | 24.2% | Toxic |
| CC(=O)Oc1cc(C)c2c(c1C)C[C@H]([C@@H](C)C(=O)OCc1cn(-c3ccc(CC#N)cc3)nn1)CC2 | Dose-dependent effect | Toxic | Dose-dependent effect | 68.9% | Toxic | 47% | 21.2% | Toxic | 65.6% | Toxic | 58.8% | Toxic | 59.5% | Toxic |
| CC(=O)Oc1cc(C)c2c(c1C)C[C@H]([C@@H](C)C(=O)OCc1cn(-c3ccc(O)cc3)nn1)CC2 | Dose-dependent effect | Toxic | Dose-dependent effect | 17.6% | Non-Toxic | 5.55% | 33.3% | Toxic | 29.7% | Non-Toxic | 26.3% | Toxic | 36.6% | Toxic |
| CC(=O)Oc1cc(C)c2c(c1C)C[C@H]([C@@H](C)C(=O)OCc1cn(-c3ccccc3Cl)nn1)CC2 | Dose-dependent effect | Toxic | Dose-dependent effect | 30.6% | Toxic | 17.6% | 5.55% | Toxic | 37.7% | Toxic | 30.3% | Toxic | 33.7% | Toxic |
| CC(=O)Oc1cc(C)c2c(c1C)[C@@H]1OC(=O)[C@@H](C)[C@@H]1CC2 | Dose-dependent effect | Non-Toxic | Dose-dependent effect | 75% | Toxic | 49.2% | 47.7% | Non-Toxic | 70% | Toxic | 44.3% | Toxic | 61.8% | Toxic |
| CC(=O)Oc1cc(C)c2c(c1C)C[C@H]([C@@H](C)C(=O)OCc1cn(-c3cccnc3Cl)nn1)CC2 | Dose-dependent effect | Non-Toxic | Dose-dependent effect | 17.6% | Toxic | 25% | 5.88% | Non-Toxic | 22.5% | Toxic | 15.4% | Toxic | 30.8% | Toxic |
| CC(=O)Oc1cc(C)c2c(c1C)C[C@H]([C@@H](C)C(=O)OCc1cn(-c3ccccc3F)nn1)CC2 | Dose-dependent effect | Non-Toxic | Dose-dependent effect | 5.88% | Non-Toxic | 11.8% | 53.7% | Non-Toxic | 39.6% | Non-Toxic | 34.6% | Non-Toxic | 50.5% | Non-Toxic |
| C#CCOC(=O)[C@H](C)[C@@H]1CCc2c(C)cc(OC(C)=O)c(C)c2C1 | Dose-dependent effect | Non-Toxic | Dose-dependent effect | 71.5% | Non-Toxic | 51.2% | 41.7% | Non-Toxic | 69.7% | Non-Toxic | 59.3% | Toxic | 57.8% | Toxic |
| CC(=O)Oc1cc(C)c2c(c1C)C[C@H]([C@@H](C)C(=O)OCc1cn(-c3cc(I)ccc3C)nn1)CC2 | Dose-dependent effect | Toxic | Dose-dependent effect | 26.5% | Non-Toxic | 38.2% | 34.5% | Toxic | 28% | Non-Toxic | 34.6% | Toxic | 39% | Toxic |
| CC(=O)Oc1cc(C)c2c(c1C)C[C@H]([C@@H](C)C(=O)OCc1cn(-c3ccc(NC(=O)c4ccccc4)cc3)nn1)CC2 | Dose-dependent effect | Non-Toxic | Dose-dependent effect | 38.2% | Non-Toxic | 30.9% | 7.35% | Non-Toxic | 19.2% | Non-Toxic | 35.2% | Toxic | 36.8% | Toxic |
| CC(=O)Oc1cc(C)c2c(c1C)C[C@H]([C@@H](C)C(=O)OCc1cn(-c3ccc(Cl)cc3)nn1)CC2 | Dose-dependent effect | Toxic | Dose-dependent effect | 13% | Toxic | 28.7% | 37% | Toxic | 34.3% | Toxic | 25.1% | Non-Toxic | 34.3% | Non-Toxic |
| COc1cc(-n2cc(COC(=O)[C@H](C)[C@@H]3CCc4c(C)cc(OC(C)=O)c(C)c4C3)nn2)cc(OC)c1OC | Dose-dependent effect | Non-Toxic | Dose-dependent effect | 83.3% | Toxic | 37.1% | 45.5% | Non-Toxic | 89.3% | Toxic | 22.1% | Toxic | 42% | Toxic |
| COc1ccccc1-n1cc(COC(=O)[C@H](C)[C@@H]2CCc3c(C)cc(OC(C)=O)c(C)c3C2)nn1 | Dose-dependent effect | Non-Toxic | Dose-dependent effect | 29.4% | Toxic | 33.1% | 8.08% | Non-Toxic | 6.59% | Toxic | 32.4% | Non-Toxic | 27.5% | Non-Toxic |
| CC(=O)Oc1cc(C)c2c(c1C)C[C@H]([C@@H](C)C(=O)OCc1cn(-c3ccc(Cl)c(Cl)c3)nn1)CC2 | Dose-dependent effect | Toxic | Dose-dependent effect | 11.8% | Non-Toxic | 18.4% | 31.6% | Toxic | 49.5% | Non-Toxic | 50.5% | Toxic | 39% | Toxic |
